From patent US20250163002A1, “FUSED QUINONOXIME IMIDAZOLE, ONIUM DERIVATIVES THEREOF, PREPARATION AND USE THEREOF” (SHANGHAI JIAO TONG UNIVERSITY, priority 2022, published 2025)
Structures can show the parent of a compound that is named as a salt.

Tests used:
Type in all cases: cell-based
L929 = assay: In vitro cell proliferation inhibition test (MTT), L929; conditions: unit inferred
A549 = assay: In vitro inhibition test for cancer cell proliferation (MTT), A549; conditions: unit inferred
MCF-7 = assay: In vitro inhibition test for cancer cell proliferation (MTT), MCF-7; conditions: unit inferred
HeLa = assay: In vitro inhibition test for cancer cell proliferation (MTT), HeLa; conditions: 24 h or 48 h after addition, unit inferred
[1] = Mus musculus, L929, 24 h or 48 h after addition
[2] = Homo sapiens, A549, 24 h or 48 h after addition
[3] = Homo sapiens, MCF7, 24 h or 48 h after addition

Compound | IC50 (L929; 24 h or 48 h after addition) | IC50 (A549; 24 h or 48 h after addition) | IC50 (MCF-7; 24 h or 48 h after addition) | IC50 (HeLa) | IC50 (L929; [1]) | IC50 (A549; [2]) | IC50 (MCF-7; [3]) | IC50 (HeLa; Homo sapiens, HeLa)
CCCn1c[n+](C)c2c1C(=O)c1ccccc1/C2=N\O [Compound 93, (E)-4-(hydroxylimino)-3-methyl-9-oxo-1-propyl-4,9-dihydro-1H-naphthol[2,3-d]imidazole-3-iodide] | 32.7 µM | 1.03 µM | 1.43 µM | 2.18 µM |  |  |  | 
COCCOCCOCCO/N=C1\c2ccccc2C(=O)c2c1[n+](C)cn2C [Compound 147, (E) and (Z)-4-((2-(2-(2-methoxyethoxy)ethoxy)ethoxy)imino)-1,3-dimethyl-9-oxo-4,9-dihydro-1H-naphthol[2,3-d]imidazole-3-iodide] |  |  |  |  | 15.7 µM | 0.02 µM | 26.8 µM | 13.2 µM
Cc1cc(C)c(-n2c[n+](C)c3c2C(=O)c2ccccc2/C3=N\O)c(C)c1 [Compound 105, (E)-4-(hydroxylimino)-1-sym-trimethyl-3-methyl-9-oxo-4,9-dihydro-1H-naphthol[2,3-d]imidazole-3-iodide] | > 100 µM | 1.11 µM | 6.12 µM | 22.6 µM |  |  |  | 
C[n+]1cn(-c2ccc(F)c(Br)c2)c2c1/C(=N/O)c1ccccc1C2=O [Compound 117, (E)-1-(3-bromo-4-fluorophenyl)-4-(hydroxylimino)-3-methyl-9-oxo-4,9-dihydro-1H-naphthol[2,3-d]imidazole-3-iodide] | > 100 µM | 5.2 µM | 67.7 µM | 87.8 µM |  |  |  | 
C[n+]1cn(-c2ccccc2)c2c1/C(=N/O)c1ccccc1C2=O [Compound 104, (E)-4-(hydroxylimino)-3-methyl-9-oxo-1-phenyl-4,9-dihydro-1H-naphthol[2,3-d]imidazole-3-iodide] | > 100 µM | 12.2 µM | 1.43 µM | 12.5 µM |  |  |  | 
Cn1c[n+](C)c2c1C(=O)c1ccccc1C2=NOCc1ccc([N+](=O)[O-])cc1 [Compound 141, (E) and (Z)-1,3-dimethyl-4-(((4-nitrobenzyl)oxy)imino)-9-oxo-4,9-dihydro-1H-naphthol[2,3-d]imidazole-3-iodide] | 23.4 µM | 0.05 µM | 45.6 µM | 23.9 µM |  |  |  | 
Cn1c[n+](C)c2c1C(=O)c1ccccc1C2=NOCc1ccccc1 [Compound 139, (E) and (Z)-4-((benzyloxy)imino)-1,3-dimethyl-9-oxo-4,9-dihydro-1H-naphthol[2,3-d]imidazole-3-p-toluenesulfonamide] | 19.9 µM | 0.005 µM | 8.6 µM | 6.8 µM |  |  |  | 
CCOC(=O)Cn1c[n+](C)c2c1C(=O)c1ccccc1/C2=N\O [Compound 103, (E)-1-(2-ethoxy-2-ethoxy)-4-(hydroxylimino)-3-methyl-9-oxo-4,9-dihydro-1H-naphthol[2,3-d]imidazole-3-iodide] | > 100 µM | 0.6 µM | 1.63 µM | 2.73 µM |  |  |  | 
COc1ccc(CON=C2c3ccccc3C(=O)c3c2[n+](C)cn3C)cc1 [Compound 133, (E) and (Z)-4-(((4-methoxybenzyl)oxy)imino)-1,3-dimethyl-9-oxo-4,9-dihydro-1H-naphthol[2,3-d]imidazole-3-iodide] | 16 µM | 0.08 µM | 17.9 µM | 23.9 µM |  |  |  | 
COc1ccc(-n2c[n+](C)c3c2C(=O)c2ccccc2/C3=N\O)cc1 [Compound 114, (E)-4-(hydroxylimino)-1-(4-methoxyphenyl)-3-methyl-9-oxo-4,9-dihydro-1H-naphthol[2,3-d]imidazole-3-iodide] | > 100 µM | 2.42 µM | 33 µM | 33.8 µM |  |  |  | 
Cn1c[n+](C)c2c1C(=O)c1cccc([N+](=O)[O-])c1/C2=N\O [Compound 118, (E)-4-(hydroxylimino)-1,3-dimethyl-5-nitro-9-oxo-4,9-dihydro-1H-naphthol[2,3-d]imidazole-3-iodide] | 12.9 µM | 0.54 µM | 0.89 µM | 0.78 µM |  |  |  | 
Cn1c[n+](C)c2c1C(=O)c1ccccc1/C2=N\O [Compound 91, (E)-1-methyl-4-(hydroxylimino)-3-methyl-9-oxo-4,9-dihydro-1H-naphthol[2,3-d]imidazole-3-iodide] | 4.7 µM | 0.53 µM | 0.84 µM | 0.67 µM |  |  |  | 
Cn1c[n+](C)c2c1C(=O)c1ccccc1C2=NOc1ccccc1 [Compound 142, (E) and (Z)-4-((phenoxy)imino)-1,3-dimethyl-9-oxo-4,9-dihydro-1H-naphthol[2,3-d]imidazole-3-iodide] | 61.3 µM | 0.06 µM | 43.5 µM | 34 µM |  |  |  | 
CCCCn1c[n+](C)c2c1C(=O)c1ccccc1C2=NOCC [Compound 120, (E) and (Z)-1-butyl-4-(ethoxylimino)-3-methyl-9-oxo-4,9-dihydro-1H-naphthol[2,3-d]imidazole-3-iodide] | > 100 µM | 0.69 µM | 13 µM | 26 µM |  |  |  | 
Cn1c[n+](C)c2c1C(=O)c1cc3ccccc3cc1C2=NOCc1ccccc1 [Compound 149, (E) and (Z)-4-((benzyloxy)imino)-1,3-dimethyl-11-oxo-4, 11-dihydro-1H-anthracene[2,3-d]imidazole-3-iodide] | > 100 µM | 0.33 µM | 75.3 µM | 67.4 µM |  |  |  | 
C[n+]1cn(-c2ccccc2F)c2c1/C(=N/O)c1ccccc1C2=O [Compound 109, (E)-1-(2-fluorophenyl)-4-(hydroxylimino)-3-methyl-9-oxo-4,9-dihydro-1H-naphthol[2,3-d]imidazole-3-iodide] | > 100 µM | 11.2 µM | 57.8 µM | 50 µM |  |  |  | 
C[n+]1cn(C2CC2)c2c1/C(=N/O)c1ccccc1C2=O [Compound 99, (E)-1-cyclopropyl-4-(hydroxylimino)-3-methyl-9-oxo-4,9-dihydro-1H-naphthol[2,3-d]imidazole-3-iodide] | 19.8 µM | 1.72 µM | 1.63 µM | 5.74 µM |  |  |  | 
C[n+]1cn(-c2ccc(F)cc2)c2c1/C(=N/O)c1ccccc1C2=O [Compound 111, (E)-1-(4-fluorophenyl)-4-(hydroxylimino)-3-methyl-9-oxo-4,9-dihydro-1H-naphthol[2,3-d]imidazole-3-iodide] | > 100 µM | 11.6 µM | 24.6 µM | 19.7 µM |  |  |  | 
Cn1c[n+](C)c2c1C(=O)c1ccccc1C2=NOCc1ccccc1 [Compound 140, (E) and (Z)-4-((benzyloxy)imino)-1,3-dimethyl-9-oxo-4,9-dihydro-1H-naphthol[2,3-d]imidazole-3-dimethyl sulfate] | 34.5 µM | 0.007 µM | 10.9 µM | 9.8 µM |  |  |  | 
CCCCn1c[n+](C)c2c1C(=O)c1ccccc1C2=NOC [Compound 119, (E) and (Z)-1-butyl-4-(methoxylimino)-3-methyl-9-oxo-4,9-dihydro-1H-naphthol[2,3-d]imidazole-3-iodide] | 4.6 µM | 0.52 µM | 18.1 µM | 33 µM |  |  |  | 
Cn1c[n+](C)c2c1C(=O)c1ccccc1C2=NOCc1c(F)c(F)c(F)c(F)c1F [Compound 137, (E) and (Z)-1,3-dimethyl-9-oxo-4-(((perfluorophenyl)methoxy)imino)-4,9-dihydro-1H-naphthol[2,3-d]imidazole-3-iodide] | 9.7 µM | 0.05 µM | 24.8 µM | 15.4 µM |  |  |  | 
CCCCn1c2c([n+](C)c1-c1cc(OC)c(OC)c(OC)c1)C(=NOCc1ccccc1)c1ccccc1C2=O [Compound 148, (E) and (Z)-4-((benzyloxy)imino)-1-butyl-3-methyl-9-oxo-2-(3,4,5-trimethoxyphenyl)-4,9-dihydro-1H-naphthol[2,3-d]imidazole-3-iodide] | 44.1 µM | 0.09 µM | 34.6 µM | 23.6 µM |  |  |  | 
CC(C)n1c[n+](C)c2c1C(=O)c1ccccc1/C2=N\O [Compound 95, (E)-4-(hydroxylimino)-1-isopropyl-3-methyl-9-oxo-4,9-dihydro-1H-naphthol[2,3-d]imidazole-3-iodide] | 26.3 µM | 1.89 µM | 2 µM | 18.3 µM |  |  |  | 
Cn1c[n+](C)c2c1C(=O)c1ccccc1C2=NOCc1ccc(F)cc1 [Compound 136, (E) and (Z)-4-(((4-fluorobenzyl)oxy)imino)-1,3-dimethyl-9-oxo-4,9-dihydro-1H-naphthol[2,3-d]imidazole-3-iodide] | 4.4 µM | 0.06 µM | 29.8 µM | 23.9 µM |  |  |  | 
COCCOCCO/N=C1\c2ccccc2C(=O)c2c1[n+](C)cn2C [Compound 146, (E)-4-((2-(2-methoxyethoxy)ethoxy)imino)-1,3-dimethyl-9-oxo-4,9-dihydro-1H-naphthol[2,3-d]imidazole-3-iodide] |  |  |  |  | 24.6 µM | 0.009 µM | 32.8 µM | 23 µM
CC(C)Cn1c[n+](C)c2c1C(=O)c1ccccc1/C2=N\O [Compound 96, (E)-4-(hydroxylimino)-1-isobutyl-3-methyl-9-oxo-4,9-dihydro-1H-naphthol[2,3-d]imidazole-3-iodide] | 57.4 µM | 2.43 µM | 1.26 µM | 9.7 µM |  |  |  | 
Cn1c[n+](C)c2c1C(=O)c1ccccc1C2=NOC(C)(C)C [Compound 130, (E) and (Z)-4-(tert-butoxyimino)-1,3-dimethyl-9-oxo-4,9-dihydro-1H-naphthol[2,3-d]imidazole-3-iodide] | > 100 µM | 0.6 µM | 56.2 µM | 48.4 µM |  |  |  | 
C[n+]1cn(Cc2cccs2)c2c1/C(=N/O)c1ccccc1C2=O [Compound 106, (E)-4-(hydroxylimino)-3-methyl-9-oxo-1-(thiophene-2-yl-methyl)-4,9-dihydro-1H-naphthol[2,3-d]imidazole-3-iodide] | > 100 µM | 11.2 µM | 20.2 µM | 9.2 µM |  |  |  | 
